We go through 4 molecules from patent US6525214B1, “Therapeutic agent” (priority 1991, dated 2003).

The nature of data set [1]: Appearance of formulation made with the drug form. In kind it is physicochemical. The procedure:
The polyethylene glycol was mixed with about 25% of the required purified water and the Carbopol® dispersed in this mixture. About 56% of the required purified water was added with rapid stirring until the CARBOPOL® was well dispersed and appeared hydrated. The sodium hydroxide was dissolved in a minimum of purified water and added to the bulk with stirring. The S(+)-ibuprofen sodium salt dihydrate was dissolved in a mixture of phenoxyethanol, propylene glycol and remaining purified water and added to the Carbopol® gel with rapid stirring.
The LYCASIN® and glycerin were mixed together. The domiphen bromide was dissolved in the alcohol. The sodium salt was added to this alcoholic solution along with sufficient purified water to produce a solution. The aqueous alcoholic solution was added to the LYCASIN®/glycerin mixture and mixed well. Optional flavourings may be added to the above formulation.
The LYCASIN® and glycerin were mixed together and diluted with a suitable volume of water. The sodium salt was dispersed and dissolved in the mixture. The domiphen bromide was dissolved in the alcohol and this solution added slowly with stirring to the bulk. The formulation was made up to volume and mixed well. Optional flavourings may be added to the formulation.
The powders were sieved through a 30 mesh sieve and blended together, then filled into sachets containing 2000 mg of powder. Optional flavourings may be added to the above mixture.

For data set [2] the following is noted: in humans; cited from earlier work.
The mark [3] stands for this setting: topical gel formulation of Example 20 (Carbopol gel base).
The mark [4] stands for this setting: higher strength oral liquid formulation of Example 25.
The mark [5] stands for this setting: low strength oral liquid formulation of Example 23.

Molecules are shown by their SMILES.

Regarding `CC(C)Cc1ccc(C(C)C(=O)[O-])cc1.[Na+]` (racemic) [sodium salt of ibuprofen racemate, sodium 2-(4-isobutylphenyl)propionate], the Appearance of product result in data set [1] (setting [3]) was “a totally unsatisfactory product that separated into a clear upper liquid and a cloudy viscous lower layer”.

`CC(C)Cc1ccc([C@@H](C)C(=O)O)cc1` [R(−)-ibuprofen, R(−)-2-(4-isobutylphenyl)propionic acid]: the “Conversion into S(+)-ibuprofen” value in data set [2] was “partially converted into S(+)-ibuprofen”.

With `CC(C)Cc1ccc([C@H](C)C(=O)O)cc1` [S(+)-ibuprofen free acid, S(+)-2-(4-isobutylphenyl)propionic acid], in data set [1] (cold relief powder formulation base of Example 27, hot water 70° C. or greater), the “Appearance on addition to hot water” value is given as “an unpalatable oily layer on the surface of the hot water”. The values for the Appearance of product entry in data set [1] (setting [4]), in data set [1] (setting [5]) and in data set [1] (setting [3]) were “an unsuitable product with the drug floating on the surface”, “a poor product with a significant proportion of the S(+)-ibuprofen floating on the surface of the product” and “an opaque product of a high viscosity not suitable for use as a topical rub”, respectively.

On to `CC(C)Cc1ccc([C@H](C)C(=O)[O-])cc1.O.O.[Na+]` [S(−)sodium 2-(4-isobutylphenyl)propionate dihydrate], for which the figures for the Appearance of product entry in data set [1] (setting [4]) and in data set [1] (setting [5]) were “a clear bright liquid” and “a bright clear product”, respectively.
